Like-named read-outs stand apart in the source and are kept apart here.
Legend:
muscarinic binding site [1] = assay: RCMD screening assay: inhibition of radiolabeled cis-methyldioxolane (muscarinic agonist) binding in rat cerebral cortex tissue; conditions: for % Inhib. RCMD: @ 10^-7 M; for IC50: rat cerebral cortex, radiolabeled cis-methyldioxolane
Procedure: Similarly, in the RCMD screening assay, described more fully by T. W. Vickeroy et al., J. Pharmacol. and Exp. Ther., 229 (3): 747 (1984), rat cerebral cortex tissue was treated with radiolabeled cis-methyldioxolane, a known muscarinic binding site agonist. The percent inhibition at given concentrations or concentrations of test compounds required to inhibit 50% of the binding of this muscarinic agonist were then determined.

muscarinic binding site [2] = assay: RQNB screening assay: inhibition of radiolabeled quinuclidinyl benzilate (muscarinic antagonist) binding in rat cerebral cortex tissue; conditions: for % Inhib. RQNB: @ 10^-6 M; for IC50: rat cerebral cortex, radiolabeled quinuclidinyl benzilate
[3] = Davis et al. 1983; cited from earlier work
laboratory rats = assay: Scopolamine induced swimming test (SIS); format: in vivo, rat; conditions: for minimal effective dose: rat, read-out: Minimal Effective Dose for Reversal of Scopolamine-Induced Swimming Hyperactivity; for Reversal of scopolamine-induced swimming hyperactivity: result in words
Procedure: In the scopolamine induced swimming test (SIS), the ability of representative compounds of the present invention to reverse the hyperactive swimming behavior of laboratory rats given scopolamine was assessed. In this test, untreated rats will generally swim between 20 to 30 meters during a five minute test period. […] The effect of scopolamine is centrally mediated; the ability of a test compound to reverse the hyperactive swimming behavior induced by scopolamine is thus a measure of the central cholinergic activity of the compound.

[4] = test system: patients clinically diagnosed as having presenile primary degenerative dementia; conditions: double blind study; Christie et al. 1981; cited from earlier work
[5] = test system: aged humans and non-human primates with decreased cognition; conditions: result in words; cited from earlier work
male Swiss-Webster mice = assay: Antiwrithing (AW) test, acetic acid induced writhing; format: in vivo; conditions: ip; intraperitoneal dosing; mouse; acetic acid 0.6%; read-out: ED50 (dose necessary to suppress writhing by 50% relative to vehicle controls)
Procedure: The antiwrithing (AW) test provides preliminary assessment of compounds with potential analgesic activity. The test is performed with male Swiss-Webster mice. Compounds are administered in aqueous 0.2% methylcellulose or other appropriate vehicles in volumes of 10 ml/kg. Dosages represent active moiety.
Acetic acid (0.6%, 10 ml/kg) is injected intraperitoneally after administration of the compound. writhing movements are counted for five minutes starting seven minutes after the acetic acid injection. Data are expressed as ED50 values, where the ED50 is the dose necessary to suppress writhing by 50% relative to vehicle controls. ED50 values are calculated by nonlinear regression analysis.

Compound	% Inhib. RCMD (muscarinic binding site [1]) [%]	% Inhib. RQNB (muscarinic binding site [2]) [%]	minimal effective dose (laboratory rats; sc, Subcutaneous) [mg/kg]	IC50 (muscarinic binding site [1]) [nM]	IC50 (muscarinic binding site [2]) [nM]	also measured
CN1CCC=C(C(COCc2ccccc2)=NO)C1 [Methyl 3-(CH2 OCH2 Ph)]	30	38				
Nc1ccncc1N [3,4-diaminopyridine]						Age-related cognitive deficits [3]: ameliorate age-related cognitive deficits
CC(=NO)C1=CCCNC1 [Hydrogen 3-Methyl, 1-(1,2,5,6-Tetrahydro-3-pyridinyl)ethanone oxime]	85	24	3.2			
COC(=O)C1=CCCN(C)C1 [arecoline, methyl ester of 1,2,5,6-tetra-hydro-1-methyl-3-pyridinecarboxylic acid, reference compound]						Reversal of scopolamine-induced swimming hyperactivity (laboratory rats): can be reversed; Test of picture recognition [4]: Significant improvement
COCCCC(=NO)C1=CCCN(C)C1 [Methyl 3-(CH2 CH2 CH2 OCH3), 4-Methoxy-1-(1,2,5,6-tetrahydro-1-methyl-3-pyridinyl)-1-butanone Oxime]			32	30	2500	
CN1[C@@H]2C[C@@H](OC(=O)[C@H](CO)c3ccccc3)C[C@H]1[C@@H]1O[C@@H]12 [scopolamine, reference compound]						Increase of swimming distance above base-line (laboratory rats; scopolamine 0.1 mg/kg, five minute test period): 75-125%
CCN1CCC=C(C(C)=NO)C1 [Ethyl 3-Methyl, 1-(1-Ethyl-1,2,5,6-tetrahydro-3-pyridinyl)ethanone oxime]	21	23				
CNC(=O)Oc1ccc2c(c1)[C@]1(C)CCN(C)[C@@H]1N2C [physostigmine, reference compound]						Memory in aged humans and non-human primates with decreased cognition [5]: improved memory; Reversal of scopolamine-induced swimming hyperactivity (laboratory rats): can be reversed
CN1CCC=C(C=NO)C1 [Methyl Hydrogen, 1,2,5,6-Tetrahydro-1-methyl-3-pyridinecarboxaldehyde oxime]	22	8	32			
CC(=NO)C1=CCCN(C)C1 [Methyl 3-Methyl, 1-(1,2,5,6-Tetrahydro-1-methyl-3-pyridinyl)-ethanone oxime]			3.2	19	4650	ED50 (male Swiss-Webster mice): 1.1 mg/kg
CN1CCC=C(C(=NO)c2ccccc2)C1 [Methyl 3-Phenyl, Phenyl(1,2,5,6-tetrahydro-1-methyl-3-pyridinyl)methanone oxime]	39	51				
C=CCCC(=NO)C1=CCCN(C)C1 [Methyl 3-(CH2 CH2 CHCH2), 1-(1,2,5,6-Tetrahydro-1-methyl-3-pyridinyl)-4-penten-1-one oxime]			32	40	600	
C#CCCC(=NO)C1=CCCN(C)C1 [Methyl 3-(CH2 CH2 C CH)]				7	1000	
CN1CCC=C(C(CCc2ccccc2)=NO)C1 [Methyl 3-Phenylmethyl]	66	86				
CCCN1CCC=C(C(CCc2ccccc2)=NO)C1 [n-Propyl 3-(CH2 CH2Ph), 3-Phenyl-1-(1,2,5,6-tetrahydro-1-propyl-3-pyridinyl)-1-propanone oxime]						minimal effective dose (laboratory rats; Oral): 3.2 mg/kg
CN1CCC=C(C(CCc2ccccc2)=NO)C1 [Methyl 3-(CH2 CH2Ph), 3-Phenyl-1-(1,2,5,6-tetrahydro-1-methyl-3-pyridinyl)-1-propanone oxime]			32			
CC(C)/C(=N/O)C1=CCCN(C)C1 [Methyl 3-(1-Methylethyl) (syn), 2-Methyl-1-(1,2,5,6-tetrahydro-1-methyl-3-pyridinyl)-1-propanone oxime]	43	35				
CCCN1CCC=C(C(CCc2ccccc2)=NO)C1 [n-Propyl 3-Phenylmethyl]	3	63				
CC(=NO)C1=CCN(C)CC1 [Methyl 4-Methyl]			3.2	490	10000	
CCCCC(=NO)C1=CCCN(C)C1 [Methyl 3-n-Butyl, 1-(1,2,5,6-Tetrahydro-1-methyl-3-pyridinyl)-1-pentanone oxime]			32	20	300	
CC(C)/C(=N\O)C1=CCCN(C)C1 [Methyl 3-(1-Methylethyl) (anti), 2-Methyl-1-(1,2,5,6-tetrahydro-1-methyl-3-pyridinyl)-1-propanone oxime]	10	10				
CCC(=NO)C1=CCCN(C)C1 [Methyl 3-Ethyl, 1-(1,2,5,6-Tetrahydro-1-methyl-3-pyridinyl)-1-propanone oxime]			32	50	2000	

— patent US4798841A, “Tetrahydropyridine oxime cholinergic agents and method of treatment” (Warner-Lambert Company, priority 1987, dated 1989)
